Patent publication US20210169961A1, “HEPATOPROTECTIVE TRADITIONAL CHINESE MEDICINE COMPOSITION, EXTRACT THEREOF, AND PHARMACEUTICAL USE THEREOF” (SHUGUANG HOSPITAL AFFILIATED TO SHANGHAI UNIVERSITY OF …, priority 2018, published 2021)

Legend:
Assay type in all cases: in vivo, human
[1] = test system: patients with HBeAg negative chronic hepatitis B; assay: Curative effects on patients with hepatitis B, randomized controlled trial (Example 31); conditions: after 30-month treatment, control group: Entecavir + placebo
[2] = test system: CHB patients (hepatic fibrosis); assay: Curative effect on patients with hepatic fibrosis, double-blind placebo-control multicenter trial (Example 34); conditions: after 12 months, treatment group: Entecavir + test sample, P<0.001
[3] = test system: patients with advanced primary hepatocarcinoma after surgery; assay: Curative effect of the compound granules on patients with liver cancer (Example 36); conditions: for patients of liver cancer recurred: test sample + Entecavir vs Entecavir

C=C1[C@H](CO)[C@@H](O)C[C@@H]1n1cnc2c(=O)[nH]c(N)nc21 [Entecavir]
ALT recurrence rate ([1]; treatment group: test sample 60 g clear extract/day + Entecavir 0.5 mg/day): 93.2% | HBsAg averagely reduced by ([1]; treatment group: test sample + Entecavir): 0.028 log IU/ml | HBeAg levels compared to those before treatment [2]: remarkably decreased | therapeutic effects on traditional Chinese medicine symptoms: invalid cases ([3]; after treatment): 65 cases | therapeutic effects on traditional Chinese medicine symptoms: patients with curative effect ([3]; after treatment): 0 patients | therapeutic effects on traditional Chinese medicine symptoms: valid cases ([3]; after treatment): 16 cases | patients with nausea and vomiting improved ([3]; among 38 patients (treatment group) / 51 patients (control group)): 15 cases | patients with tastelessness improved ([3]; among 61 patients (treatment group) / 58 patients (control group)): 25 cases | patients with stomach distension improved ([3]; among 68 patients (treatment group) / 62 patients (control group)): 35 cases | patients with fatigue and acratia improved ([3]; among 73 patients (treatment group) / 69 patients (control group)): 45 cases | patients of liver cancer recurred ([3]; at 3 months of follow-up visit): 48 patients | patients of liver cancer recurred ([3]; at 3 months of treatment): 13 patients | patients of liver cancer recurred ([3]; at 6 months of treatment): 44 patients | accumulative survival rate ([3]; treatment group: test sample 60 g clear extract/day + Entecavir 0.5 mg/day, control group: Entecavir 0.5 mg/day): 76.7%
